This note sets out measurements from the OPERA property sets (Mansouri et al. 2018).

The structures appear in SMILES notation.

One may read the logP as a log measure of how a compound divides between an organic and an aqueous phase. Low values mean lower lipophilicity, high ones higher lipophilicity. Molecule `COc1ccccc1N1CCNCC1` displayed a logP of 1.67.
As for `c1ccc2c(N3CCNCC3)nsc2c1`, the logP is 2.14.
For `Clc1cccc(N2CCNCC2)c1` the value was 2.11.
For `c1ccc(N2CCNCC2)nc1` the value was 0.74; for `Clc1ccccc1N1CCNCC1`, 2.13.
As to `Fc1ccnc(N2CCNCC2)n1`, the logP turned out to be 0.97.
Molecule `Fc1ccc(N2CCNCC2)cc1` yielded a logP of 1.28.
For `c1ccc(N2CCNCC2)cc1` the value was 1.1.
The molecule `Cc1ccccc1N1CCNCC1` registered a logP of 2.14.
For the molecule `c1cnc(N2CCNCC2)nc1`, the logP was found to be 0.49.
For `FC(F)(F)c1cccc(N2CCNCC2)c1` the value was 2.43; for `Clc1ccc(N2CCNCC2)cc1`, 2.01; for `c1csc(N2CCNCC2)n1`, 0.61.
On to `c1ccc2nc(N3CCNCC3)ccc2c1`, for which the logP was found to be 2.04.
